Results published in patent US20030060498A1, “5-arylsulfonyl indoles useful for treating disease” (priority 2001, published 2003).
Counter-ions that a name gives are not always drawn. Like-named read-outs stand apart in the source and are kept apart here.

How the values were obtained:
[1] = target: T1, cloned human 5-HT6 receptor (Homo sapiens, UniProt P50406); test: 5-HT6 receptor binding assay ([3H]-LSD radioligand, SPA beads)
T1 construct: host or cells: HeLa cells (G-418 selection); membrane preparation
T1 sequence (P50406 whole entry): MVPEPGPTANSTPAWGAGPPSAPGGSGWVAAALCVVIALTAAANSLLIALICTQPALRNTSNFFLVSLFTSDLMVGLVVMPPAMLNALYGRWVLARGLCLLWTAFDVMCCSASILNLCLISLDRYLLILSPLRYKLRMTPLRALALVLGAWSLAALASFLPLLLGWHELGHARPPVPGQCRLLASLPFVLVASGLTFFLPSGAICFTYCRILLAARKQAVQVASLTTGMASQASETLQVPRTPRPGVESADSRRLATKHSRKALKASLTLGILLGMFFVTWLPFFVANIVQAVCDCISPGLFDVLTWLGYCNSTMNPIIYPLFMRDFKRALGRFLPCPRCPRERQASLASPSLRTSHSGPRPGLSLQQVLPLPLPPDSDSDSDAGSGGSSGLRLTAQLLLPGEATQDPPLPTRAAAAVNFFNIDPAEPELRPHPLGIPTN
Experimental: 5-HT6 Receport Binding Assay
Growth of Cells and Membrane Preparation:
Hela cells containing the cloned human 5-HT6 receptor were acquired from Dr. David R. Sibley's laboratory in National Institute of Health (see Sibley, D. R., J. Neurochemistry, 66, 47-56, 1996). Cells were grown in high glucose Dulbecco's modified Eagle's medium, supplemented with L-glutamine, 0.5% sodium pyruvate, 0.3% penicillin-streptomycin, 0.025% G-418 and 5% Gibco fetal bovine serum and then were harvested, when confluent, in cold phosphate buffered saline.
Harvested intact cells were washed once in cold phosphate-buffered saline. The cells were pelleted and resuspended in 100 ml of cold 50 mM Tris, 5 mM EDTA and 5 mM EGTA, pH 7.4. Homogenization was with a Vir Tishear generator, 4 cycles for 30 seconds each at setting 50. The homogenized cells were centrifuged at […] for 10 minutes and the supernatant was removed. The pellet was resuspended in 100 ml of the above buffer and rehomogenized for 2 cycles. The rehomogenized cells were then centrifuged at […] for 10 minutes and the supernatant was removed. The combined supernatant (200ml) was centrifuged at 23,000 RPM (80,000×g) for 1 hour in a Beckman Rotor (42.1 Ti). The membrane pellet was resuspended in […] of assay buffer containing HEPES 20 mM, MgCl2 10 mM, NaCl 150 mM, EDTA 1 mM, pH 7.4 and stored frozen in aliqouts at −70° C.
5-HT6 Receptor Binding Assay
The radioligand binding assay used [^3H]-lysergic acid diethylamide (LSD). The assay was carried out in Wallac 96-well sample plates by the addition of 11 μl of the test sample at the appropriate dilution (the assay employed 11 serial concentrations of samples run in duplicate), 11 μl of radioligand, and 178 μl of a washed mixture of WGA-coated SPA beads and membranes in binding buffer. The plates were shaken for about 5 minutes and then incubated at room temperature for 1 hour. The plates were then loaded into counting cassettes and counted in a Wallac MicroBeta Trilux scintillation counter.
Binding Constant (Ki) Determination
Eleven serial dilutions of test compounds were distributed to assay plates using the PE/Cetus Pro/Pette pipetter. These dilutions were, followed by radioligand and the bead-membrane mixture prepared as described above. The specifically bound cpm obtained were fit to a one-site binding model using GraphPad Prism ver. 3.0. Estimated IC50 values were converted to Ki values using the Cheng-Prusoff equation (Cheng, Y. C. et al., Biochem. Pharmacol., 22, 3099-108, 1973).

CNCCc1c(C)n(C)c2ccc(S(=O)(=O)c3cccc4ccccc34)cc12.Cl
melting point: > 141 °C (dec.)

Cc1[nH]c2ccc(S(=O)(=O)c3cccc4ccccc34)cc2c1CCN (as salt: hydrochloride) [Example 21, 2-[2-methyl-5-(1-naphthylsulfonyl)-1H-indol-3-yl]ethanamine Hydrochloride]
melting point: > 280 °C

Cl.Cn1cc(CCN)c2cc(S(=O)(=O)c3ccccc3)ccc21 [Example 1, 2-[1-methyl-5-(phenylsulfonyl)-1H-indol-3-yl]ethanamine Hydrochloride]
Ki [1]: 1.5 nM | melting point: 285.3 to 292 °C

Cc1[nH]c2ccc(S(=O)(=O)c3ccccc3)cc2c1CCN.Cl [Example 2, 2-[2-methyl-5-(phenylsulfonyl)-1H-indol-3-yl]ethanamine Hydrochloride]
Ki [1]: 38 nM | melting point: > 280 °C

CNCCc1c(C)[nH]c2ccc(S(=O)(=O)c3ccccc3)cc12 [Example 3, N-methyl-2-[2-methyl-5-(phenylsulfonyl)-1H-indol-3-yl]ethanamine]
Ki [1]: 37 nM | melting point: 164.6 to 166 °C

Cc1c(CCN)c2cc(S(=O)(=O)c3ccccc3)ccc2n1C.Cl [Example 4, 2-[1,2-dimethyl-5-(phenylsulfonyl)-1H-indol-3-yl]ethanamine Hydrochloride]
Ki [1]: 4 nM | melting point: 155 to 158.3 °C

CNCCc1c(C)n(C)c2ccc(S(=O)(=O)c3ccccc3)cc12.Cl [Example 5, 2-[1,2-dimethyl-5-(phenylsulfonyl)-1H-indol-3-yl]-N-methylethanamine Hydrochloride]
Ki [1]: 9 nM | melting point: 266.8 to 268.2 °C

Cc1c(CCN(C)C)c2cc(S(=O)(=O)c3ccccc3)ccc2n1C [Example 6, 2-[1,2-dimethyl-5-(phenylsulfonyl)-1H-indol-3-yl]-N,N-dimethylethanamine]
Ki [1]: 1.8 nM | melting point: 169.6 to 171.9 °C

Cc1ccc(S(=O)(=O)c2ccc3c(c2)c(CCN)cn3C)cc1.Cl [Example 7, 2-{1-methyl-5-[(4-methylphenyl)sulfonyl]-1H-indol-3-yl}ethanamine Hydrochloride]
Ki [1]: 3.3 nM | melting point: 186.3 to 190.2 °C

CNCCc1cn(C)c2ccc(S(=O)(=O)c3ccc(C)cc3)cc12.Cl [Example 8, N-methyl-2-{1-methyl-5-[(4-methylphenyl)sulfonyl]-1H-indol-3-yl}ethanamine hydrochloride]
Ki [1]: 7.6 nM | melting point: 275 to 277.6 °C

Cc1ccc(S(=O)(=O)c2ccc3[nH]c(C)c(CCN)c3c2)cc1.Cl [Example 9, 2-{2-methyl-5-[(4-methylphenyl)sulfonyl]-1H-indol-3-yl}ethanamine Hydrochloride]
Ki [1]: 308 nM | melting point: > 275 °C

Cc1ccc(S(=O)(=O)c2ccc3c(c2)c(CCN)c(C)n3C)cc1.Cl [Example 10, 2-{1,2-dimethyl-5-[(4-methylphenyl)sulfonyl]-1H-indol-3-yl}ethanamine Hydrochloride]
Ki [1]: 22 nM | melting point: 168 to 172 °C

CNCCc1c(C)n(C)c2ccc(S(=O)(=O)c3ccc(C)cc3)cc12.Cl [Example 11, 2-{1,2-dimethyl-5-[(4-methylphenyl)sulfonyl]-1H-indol-3-yl}-N-methylethanamine Hydrochloride]
Ki [1]: 15 nM | melting point: 259.7 to 262.3 °C

Cc1[nH]c2ccc(S(=O)(=O)c3ccc(C(F)(F)F)cc3)cc2c1CCN.Cl [Example 12, 2-(2-methyl-5-{[4-(trifluoromethyl)phenyl]sulfonyl}-1H-indol-3-yl)ethanamine Hydrochloride]
Ki ([1]; [3H]-LSD, membranes of Hela cells containing the cloned human 5-HT6 receptor, IC50 converted by Cheng-Prusoff, average, read-out: Ki): 146 nM | melting point: > 275 °C

Cc1c(CCN)c2cc(S(=O)(=O)c3ccc(C(F)(F)F)cc3)ccc2n1C.Cl [Example 13, 2-(1,2-dimethyl-5-{[4-(trifluoromethyl)phenyl]sulfonyl}-1H-indol-3-yl)ethanamine Hydrochloride]
Ki [1]: 36 nM | melting point: > 280 °C

CNCCc1c(C)n(C)c2ccc(S(=O)(=O)c3ccc(C(F)(F)F)cc3)cc12.Cl [Example 14, 2-(1,2-dimethyl-5-{[4-(trifluoromethyl)phenyl]sulfonyl}-1H-indol-3-yl)-N-methylethanamine Hydrochloride]
Ki [1]: 18 nM | melting point: 189.1 to 193.7 °C

COc1cccc(S(=O)(=O)c2ccc3[nH]c(C)c(CCN)c3c2)c1.Cl [Example 15, 2-{5-[(3-methoxyphenyl)sulfonyl]-2-methyl-1H-indol-3-yl}ethanamine Hydrochloride]
Ki [1]: 209 nM | melting point: 300 to 302 °C

COc1cccc(S(=O)(=O)c2ccc3c(c2)c(CCN)c(C)n3C)c1.Cl [Example 16, 2-{5-[(3-methoxyphenyl)sulfonyl]-1,2-dimethyl-1H-indol-3-yl}ethanamine Hydrochloride]
Ki [1]: 3.4 nM | melting point: 269.5 to 272.4 °C

CNCCc1c(C)n(C)c2ccc(S(=O)(=O)c3cccc(OC)c3)cc12.Cl [Example 17, 2-{5-[(3-methoxyphenyl)sulfonyl]-1,2-dimethyl-1H-indol-3-yl}-N-methylethanamine Hydrochloride]
Ki [1]: 10 nM | melting point: 192.4 to 196 °C

Cc1[nH]c2ccc(S(=O)(=O)c3cc(F)cc(F)c3)cc2c1CCN.Cl [Example 18, 2-{5-[(3,5-difluorophenyl)sulfonyl]-2-methyl-1H-indol-3-yl}ethanamine Hydrochloride]
Ki [1]: 66 nM | melting point: > 280 °C

Cc1c(CCN)c2cc(S(=O)(=O)c3cc(F)cc(F)c3)ccc2n1C.Cl [Example 19, 2-{5-[(3,5-difluorophenyl)sulfonyl]-1,2-dimethyl-1H-indol-3-yl}ethanamine Hydrochloride]
Ki [1]: 5.6 nM | melting point: 288.6 to 290.5 °C

CNCCc1c(C)n(C)c2ccc(S(=O)(=O)c3cc(F)cc(F)c3)cc12.Cl [Example 20, 2-{5-[(3,5-difluorophenyl)sulfonyl]-1,2-dimethyl-1H-indol-3-yl}-N-methylethanamine Hydrochloride]
Ki [1]: 4.6 nM | melting point: 253.5 to 257.8 °C

Cc1[nH]c2ccc(S(=O)(=O)c3cccc4ccccc34)cc2c1CCN [Example 21, 2-[2-methyl-5-(1-naphthylsulfonyl)-1H-indol-3-yl]ethanamine Hydrochloride]
Ki [1]: 0.9 nM

Cc1c(CCN)c2cc(S(=O)(=O)c3cccc4ccccc34)ccc2n1C.Cl [Example 22, 2-[1,2-dimethyl-5-(1-naphthylsulfonyl)-1H-indol-3-yl]ethanamine Hydrochloride]
Ki [1]: 3.1 nM | melting point: > 175 °C (dec.)
